The text below walks through data of patent US12528813B2, “Substituted imidazo[4,5-b]pyridines as M3 receptor PAMs” (NIPPON SHINYAKU CO., LTD., priority 2019, dated 2026).

In the first data set the test system is anesthetized rats. The data set can be described thus: Effect on increase in intravesical pressure induced by pelvic nerve electrical stimulation in anesthetized rats. Format: in vivo, rat. The following applies: intravenous, 0.1 mg/kg.
As to `CN(CCCCCCN(C)C(=O)Oc1ccc[n+](C)c1)C(=O)Oc1ccc[n+](C)c1` [distigmine bromide, reference compound], the “nicotinic side effect (fasciculation)” value was “a nicotinic side effect (fasciculation) was observed”.

For a further data set, the system named is anesthetized rats. The description is as above. Type of data set: in vivo, rat. The following applies: Rattus norvegicus, 1 h, anesthetized SD female rats, test compound 0.3 mg/kg intravenous, single dose, read-out: Ratio of Change Rc of AUC of increase in intravesical pressure (maximum during 1 hour after administration). Here is the method:
As the action of nerve stimulation-dependent bladder contraction in vivo, the action of the test compound on increase in intravesical pressure induced by pelvic nerve electrical stimulation using rats was measured by the following method.
SD female rats (Japan SLC, Inc.) were anesthetized by subcutaneously administering 1200 mg/kg of urethane (manufactured by Fujifilm Wako Pure Chemical Industries, Ltd.), and then the lower abdomen of each rat was incised at the midline. After the ureters on both sides were ligated and cut, a cannula for measuring intravesical pressure (PE-60, manufactured by BECTON DICKINSON) was inserted into the bladder through the external urethral orifice and fixed with sutures. After about 200 μL of saline was injected via the cannula inserted into the bladder, the other end of the cannula was connected to a pressure transducer to measure intravesical pressure.
The pelvic nerve near the bladder of the rat was separated under stereomicroscope observation and an electrode for nerve stimulation (K2-14015M-PT, manufactured by BrainScience idea. Co., Ltd.) was attached. The peritoneal cavity of the rat was filled with liquid paraffin (26114-75, NACALAI TESQUE, INC.). After the postoperative rest period, the pelvic nerve was electrically stimulated to cause an increase in intravesical pressure, using an electrical stimulator (SEN-7203, manufactured by NIHON KOHDEN CORPORATION). At this time, the stimulation frequency was set to 8 Hz, the pulse width was set to 0.3 ms, and the stimulation time was set to 10 seconds. The voltage of the electrical stimulator was adjusted such that the increase in intravesical pressure was about 50% to 70% of that at stimulation with 10 V.
Then, the electric stimulation was repeated at an interval of 10 minutes. After the increase in intravesical pressure induced by electric stimulation was stabilized three times or more, a test compound (dosage 0.3 mg/kg), distigmine bromide (dosage 0.03, 0.1 mg/kg), or a vehicle was intravenously administered at a single dosage of 1.0 mL/kg via a catheter placed into a femoral vein, and the effect of the test compound on increase in intravesical pressure was measured for 1 hour. Saline was used as a vehicle, and the test compound was dissolved in dimethylsulfoxide and then added to the vehicle. At this time, the final concentration of dimethylsulfoxide was set to 10%.
The response data (intravesical pressure) were imported to a personal computer via a data collection and analysis system (PowerLab (registered trademark), manufactured by ADInstruments) and analyzed using analysis software (LabChart (registered trademark), manufactured by ADInstruments). For each electric stimulation, AUC of the increase in intravesical pressure (area under the curve of plot of intravesical pressure) was calculated, and a ratio of change Rc (unit: %) with respect to the value (AUC) before administering the test compound was calculated according to the following equation (2). In the equation (2), Ab denotes AUC before administering the test compound, and Aa denotes AUC after administering the test compound. In addition, the maximum effect observed during 1 hour after administering the test compound (maximum ratio of change Rc) was defined as the effect of the test compound. The higher the ratio of change Rc, the higher the effect of enhancing bladder contraction force and the higher the effect of increasing intravesical pressure. Rc=100×(Aa−Ab)/Ab (2)
Turning to `COCC1(CN(C)c2cc(-c3cnc(C4CC4)c(C(F)(F)F)c3)nc3nc(NC(=O)c4ccc(CCCC(=O)O)cn4)[nH]c23)CCCCC1` [Example 11, 4-[6-({5-[6-Cyclopropyl-5-(trifluoromethyl)pyridin-3-yl]-7-({[1-(methoxymethyl)cyclohexyl]methyl}(methyl)amino)-1H-imidazo[4,5-b]pyridin-2-yl}carbamoyl)pyridin-3-yl]butanoic acid], the change in vivo at 0.3 mg/kg is 80.7%. `CCOc1cc(-c2cc(N(C)CC3(COC)CCCC3)c3[nH]c(NC(=O)c4ccc(CCC(=O)O)cn4)nc3n2)cc(C(F)(F)F)n1` [Example 2, 3-[6-({5-[2-Ethoxy-6-(trifluoromethyl)pyridin-4-yl]-7-({[1-(methoxymethyl)cyclopentyl]methyl}(methyl)amino)-1H-imidazo[4,5-b]pyridin-2-yl}carbamoyl)pyridin-3-yl]propanoic acid]: the change in vivo at 0.3 mg/kg is 36.5%. `COCC1(CN(C)c2cc(-c3cnc(C4CC4)c(C(F)(F)F)c3)nc3nc(NC(=O)c4ccc(CCCC(=O)O)cn4)[nH]c23)CCCC1` [Example 8, 4-[6-({5-[6-Cyclopropyl-5-(trifluoromethyl)pyridin-3-yl]-7-({[1-(methoxymethyl)cyclopentyl]methyl}(methyl)amino)-1H-imidazo[4,5-b]pyridin-2-yl}carbamoyl)pyridin-3-yl]butanoic acid]: the change in vivo at 0.3 mg/kg amounted to 85.7%. With `CCOc1ncc(-c2cc(N(C)CC3(COC)CCCCC3)c3[nH]c(NC(=O)c4ccc(CCC(=O)O)cn4)nc3n2)cc1C(F)(F)F` [Example 13], the change in vivo at 0.3 mg/kg came to 113%. For `COCC1(CN(C)c2cc(-c3cc(C4CC4)nc(C(F)(F)F)c3)nc3nc(NC(=O)c4ccc(CCC(=O)O)cn4)[nH]c23)CCCC1` [Example 3, 3-[6-({5-[2-Cyclopropyl-6-(trifluoromethyl)pyridin-4-yl]-7-({[1-(methoxymethyl)cyclopentyl]methyl}(methyl)amino)-1H-imidazo[4,5-b]pyridin-2-yl}carbamoyl)pyridin-3-yl]propanoic acid], the change in vivo at 0.3 mg/kg came to 28.5%.

Turning to `COCC1(CN(C)c2cc(-c3cnc(C4CC4)c(C(F)(F)F)c3)nc3nc(NC(=O)c4cn(CCCC(=O)O)cn4)[nH]c23)CCCC1` [Example 7, 4-[4-({5-[6-Cyclopropyl-5-(trifluoromethyl)pyridin-3-yl]-7-({[1-(methoxymethyl)cyclopentyl]methyl}(methyl)amino)-1H-imidazo[4,5-b]pyridin-2-yl}carbamoyl)-1H-imidazol-1-yl]butanoic acid], the change in vivo at 0.3 mg/kg is 41.8%. Still for that read-out and setting: for `COCC1(CN(C)c2cc(-c3cnc(C4CC4)c(C(F)(F)F)c3)nc3nc(NC(=O)c4ccc(CCC(=O)O)cn4)[nH]c23)CCCC1` [Example 1, 3-[6-({5-[6-Cyclopropyl-5-(trifluoromethyl)pyridin-3-yl]-7-({[1-(methoxymethyl)cyclopentyl]methyl}(methyl)amino)-1H-imidazo[4,5-b]pyridin-2-yl}carbamoyl)pyridin-3-yl]propanoic acid] the value was 55.3%; for `COCC1(CN(C)c2cc(-c3cnc(C4CC4)c(C(F)(F)F)c3)nc3nc(NC(=O)c4ccc(CC(C)C(=O)O)cn4)[nH]c23)CCCC1` (stereo not drawn) [Example 4, 3-[6-({5-[6-Cyclopropyl-5-(trifluoromethyl)pyridin-3-yl]-7-({[1-(methoxymethyl)cyclopentyl]methyl}(methyl)amino)-1H-imidazo[4,5-b]pyridin-2-yl}carbamoyl)pyridin-3-yl]-2-methylpropanoic acid], 89.5%; for `COCC1(CN(C)c2cc(-c3cnc(C4CC4)c(C(F)(F)F)c3)nc3nc(NC(=O)c4ccc(CN(C)CC(=O)O)cn4)[nH]c23)CCCC1` [Example 6], 55.1%. As for `CCOc1ncc(-c2cc(N(C)CC3(COC)CCCCC3)c3[nH]c(NC(=O)c4ccc(CCCC(=O)O)cn4)nc3n2)cc1C(F)(F)F` [Example 14, 4-[6-({5-[6-Ethoxy-5-(trifluoromethyl)pyridin-3-yl]-7-({[1-(methoxymethyl)cyclohexyl]methyl}(methyl)amino)-1H-imidazo[4,5-b]pyridin-2-yl}carbamoyl)pyridin-3-yl]butanoic acid], the change in vivo at 0.3 mg/kg was found to be 70.4%. Regarding `COCC1(CN(C)c2cc(-c3cnc(C4CC4)c(C(F)(F)F)c3)nc3nc(NC(=O)c4cn5c(n4)CCC(C(=O)O)C5)[nH]c23)CCCC1` (stereo not drawn) [Example 5, 2-({5-[6-Cyclopropyl-5-(trifluoromethyl)pyridin-3-yl]-7-({[1-(methoxymethyl)cyclopentyl]methyl}(methyl)amino)-1H-imidazo[4,5-b]pyridin-2-yl}carbamoyl)-5,6,7,8-tetrahydroimidazo[1,2-a]pyridine-6-carboxylic acid], the change in vivo at 0.3 mg/kg turned out to be 49.1%.

For the compound `COCC1(CN(C)c2cc(-c3cc(C4CC4)nc(C(F)(F)F)c3)nc3nc(NC(=O)c4cc5c(cn4)CN(CCC(=O)O)CC5)[nH]c23)CCCC1` [Example 10, 3-[6-({5-[2-Cyclopropyl-6-(trifluoromethyl)pyridin-4-yl]-7-({[1-(methoxymethyl)cyclopentyl]methyl}(methyl)amino)-1H-imidazo[4,5-b]pyridin-2-yl}carbamoyl)-1,2,3,4-tetrahydro-2,7-naphthyridin-2-yl]propanoic acid], the change in vivo at 0.3 mg/kg amounted to 33.7%. The same measure, in the same setting: for `CCOc1ncc(-c2cc(N(C)CC3(COC)CCCC3)c3[nH]c(NC(=O)c4ccc(CCCC(=O)O)cn4)nc3n2)cc1C(F)(F)F` [Example 12, 4-[6-({5-[6-Ethoxy-5-(trifluoromethyl)pyridin-3-yl]-7-({[1-(methoxymethyl)cyclopentyl]methyl}(methyl)amino)-1H-imidazo[4,5-b]pyridin-2-yl}carbamoyl)pyridin-3-yl]butanoic acid] the value was 53.4%; for `CCOc1cc(-c2cc(N(C)CC3(COC)CCCC3)c3[nH]c(NC(=O)c4cc5c(cn4)CN(CCC(=O)O)CC5)nc3n2)cc(C(F)(F)F)n1` [Example 9], 44%.

The same data set, now with this note: anesthetized SD female rats, intravenous, test compound 0.3 mg/kg, distigmine bromide 0.03, 0.1 mg/kg.
With `CN(CCCCCCN(C)C(=O)Oc1ccc[n+](C)c1)C(=O)Oc1ccc[n+](C)c1` [distigmine bromide, reference compound], the “effect of enhancing bladder contraction force” value was “exhibited an effect of enhancing bladder contraction force”.

Still in this data set, the particulars now being: anesthetized SD female rats, test compound 0.3 mg/kg intravenous, single dose.
On to `COCC1(CN(C)c2cc(-c3cnc(C4CC4)c(C(F)(F)F)c3)nc3nc(NC(=O)c4cn(C[C@@H](C)C(=O)O)cn4)[nH]c23)CCCC1` [Compound 53], for which the “Ratio of Change Rc of AUC of increase in intravesical pressure (maximum during 1 hour after administration)” value is on record as 50.2%. Take `COCC1(CN(C)c2cc(-c3cnc(C4CC4)c(C(F)(F)F)c3)nc3nc(NC(=O)c4ccc(C5CC5C(=O)O)cn4)[nH]c23)CCCC1` (stereo not drawn) [Compound 49]: the “Ratio of Change Rc of AUC of increase in intravesical pressure (maximum during 1 hour after administration)” value was 43.6%.
